Experimental data from patent US8946482B2, “Salts of rasagiline and pharmaceutical preparations thereof” (Ratiopharm GmbH, priority 2009, dated 2015).
Read-outs that look alike come from different tables or passages of the source.

Details: for physical state of the salt: room temperature
Experimental: The term “liquid” means that the salt is in a state of matter where the particles are loose and can freely form a distinct surface at the boundaries of the bulk material. The liquid's shape is determined by the container it fills. The liquid can be of low or high viscosity, e.g. in the form of an oil or thick oil.
The liquid salt of the present invention can be prepared by mixing rasagiline and the acid and recovering the salt. […] Efficient mixing can be mediated by the use of a mixer mill. Alternatively, the rasagiline and the acid can be mixed in the presence of a solvent. In this case, either the rasagiline or the acid or the rasagiline and the acid can be suspended or dissolved in the same or different solvents before mixing. For example, first the rasagiline can be dissolved in the solvent and then the acid is added to this solution. Suitable solvents are, e.g., water, tetrahydrofurane, isopropyl alcohol, acetone, diisopropyl ether, and mixtures thereof. Preferred solvents are diisopropyl ether and acetone.
In the following table 1, the reference examples and examples of the present invention are summarized: […]

Molecule | physical state of the salt | further results
C#CCN[C@@H]1CCc2ccccc21 [Ref. Ex. 8, Rasagiline 4-dodecylbenzenesulfonate] | – | physical state of the salt (listed as rasagiline dodecyl benzene sulphonate): solids
C#CCN[C@@H]1CCc2ccccc21 [Ref. Ex. 7, Rasagiline Lauryl Sulphate] | solids | –
C#CCN[C@@H]1CCc2ccccc21 [Ex. 3, Rasagiline Propanoate] | – | physical state of the salt at 0° C. (0° C.): solid; physical state of the salt (listed as Rasagiline propionate): oil
C#CCNC1CCc2ccccc21.O=C1NS(=O)(=O)c2ccccc21 (stereo not shown) [Ref. Ex. 5, Rasagiline Saccharinate] | solid | –
C#CCN[C@@H]1CCc2ccccc21.CC(=O)O [Ref. Ex. 9, Rasagiline Acetate] | crystalline solid | –
Rasagiline Docusate [Ref. Ex. 6] | solid wax | –
